# Assay results reported in patent US20050233413A1, “Neuroprotective polypeptides and methods of use” (priority 2002, published 2005).
# Read-outs that look alike come from different tables or passages of the source. Where no end group is shown, it is not given here. [ ]: non-standard residue; d: D form. pS = N[C@@H](COP(=O)(O)O)C(=O)O
# Columns and labels:
# Format in all cases: cell-based
# [1] = system: Aβ and V642I-APP; details: Table 5, marked **
# Excerpt: (§1) F11 cells, the hybrid of a rat embryonic-day-13 primary cultured primary neuron and a mouse neuroblastoma cell, are one of the best models for primary cultured neurons as they carry representative characteristics of primary neurons, such as generation of action potentials without differentiation by NGF [22]. They have been used in various studies of is neuronal functions. Using these cells, the underlying mechanisms for cytotoxicity by V642I-APP have well been analyzed. Cytotoxicity by V642 mutants of APP has also been confirmed in multiple different systems. F11 cells were grown in Ham's F-12 (GibcoBRL, Gaithersburg, Md.) plus 18% fetal bovine serum (FBS; Hyclone, Logan, Utah) and antibiotics, as described previously. F11 cells (7×10^4 cell/well in a 6-well plate cultured in Ham's F-12 plus 18% FBS for 12-16 hr) were transfected with plasmids encoding FAD genes by lipofection [FAD cDNA 2 μg, LipofectAMINE 4 μl, PLUS reagent 8 μl (GibcoBRL)] in the absence of serum for 3 hr, and were incubated with Ham's F-12 plus 18% FBS for 2 hr. Then, culture media were changed to Ham's F-12 plus 10% FBS with or without HN peptides, and cells were cultured for an additional 67 hr. Seventy-two hr after transfection, cell mortality was measured by Trypan blue exclusion assay, performed as follows. Cells were suspended by pipetting gently, and 50 μl of 0.4% (finally 0.08%) Trypan blue solution (Sigma, St Louis, Mo.) was mixed with 200 μl of the cell suspension at room temperature. Stained cells were counted within 3 min after the mixture with Trypan blue solution.
# (§2) The primary culture of mouse cortical neurons was performed in poly-L-lysine-coated 24-well plates or 96-well plates (Sumitomo Bakelite, Akita, Japan), in the absence of serum and the presence of N2 supplement, as described previously. The purity of neurons by this method was >98%. Prepared neurons (for neurons seeded in 96-well plates: 2.5×10^4 or 5×10^4 cells/well, 100 μl culture medium/well; for neurons seeded in 24-well plates: 1.25×10^5 cells/well, 250 μl culture medium/well) were preincubated with or without 10 μM (in case for the experiment with 10 μM HN) synthetic HN for 16 hr, and treated with 25 μM Aβ in the presence or absence of 10 μM HN for 72 hr, respectively. As primary neurons were vulnerable to transient dryness during medium exchange, we treated neurons with 25 μM Aβ as follows. First, a half volume (50 μl for neurons in 96-well plates; 125 μl for neurons in 24-well plates) of old medium was discarded. Then, the same volume (50 μl for neurons in 96-well plates; 125 μl for neurons in 24-well plates) of prewarned fresh medium containing 10 μM HN and 50 μM Aβ (Aβ was directly resolved) was added to the culture. The Aβ peptides used at 25 μM to induce neurotoxicity formed aggregation in the medium during the cell culture at 37° C. for 72 hr. as described. The WST-8 cell viability assay was performed, using Cell Counting Kit-8 (Wako Pure Chemical Industries, Osaka, Japan), as described previously.
# (§3) Calcein assay was performed with Calcein-AM {3′,6′-di-(O-acetyl)-2′,7′-bis [N,N-bis(carboxymethyl)aminomethyl] fluorescein, tetraacetoxymethyl ester; Dojindo}, as described previously. These assays were simultaneously performed in the experiments with neurons seeded in 96-well plates, as follows. Seventy-two hours after Aβ treatment, cells were added with the mixture of 10 μl WST-8 solution and 1 μl of 600 μM Calcein-AM. After 2 hr incubation in a CO2 incubator at 37° C., WST-8 absorbance was measured as OD450. After exchanging the medium to PBS to lower the background, Calcein-specific fluorescence (ex=485 nm, em=535 nm) was observed by fluorescence microscopy or measured by a spectrofluorometer (Wallac1420 ARVOsx Multi Label Counter). […]
# [2] = system: F11 cells transfected with V642I-APP cDNA; assay: F11 cell death by V642I-APP transfection (Trypan blue exclusion); details: for % dead cells of total cells: 72 hr after transfection; for cytotoxicity by V642I-APP in the presence of peptide (% dead cells of total cells): each peptide 10 μM, V642I-APP alone 53.7±1.2%, without transfection 9.0±1.4
# Excerpt: (§4) In one assay, transfection with V642I-APP causes cell death in F11 neuronal hybrid cells. In the other, treatment with Aβ peptides causes cell death in primary cultured cortical neurons.
# as §1
# [3] = system: primary cultured neurons treated with 25 μM Aβ1-43; details: 72 hours, means±S.D.
# Experimental: as §4, §2
# Calcein assay was performed with Calcein-AM {3′,6′-di-(O-acetyl)-2′,7′-bis [N,N-bis(carboxymethyl)aminomethyl] fluorescein, tetraacetoxymethyl ester; Dojindo}, as described previously. These assays were simultaneously performed in the experiments with neurons seeded in 96-well plates, as follows. Seventy-two hours after Aβ treatment, cells were added with the mixture of 10 μl WST-8 solution and 1 μl of 600 μM Calcein-AM. After 2 hr incubation in a CO2 incubator at 37° C., WST-8 absorbance was measured as OD450. After exchanging the medium to PBS to lower the background, Calcein-specific fluorescence (ex=485 nm, em=535 nm) was observed by fluorescence microscopy or measured by a spectrofluorometer (Wallac1420 ARVOsx Multi Label Counter). Most cell viability data using Calcein assay and WST-8 assay were obtained from neurons seeded at 5×10^4 cells/well in 96-well plates (high-density neurons) and confirmed by both assays with the cells seeded at 2.5×10^4 cells/well (low-density neurons).
# Some experiments for Calcein assay were performed with neurons seeded in 24-well plates. […] In most experiments using primary neurons, four independent experiments were performed and the means? S. D. of the results were discussed.
# [4] = system: Aβ and four FAD genes (V642I-APP, NL-APP, M146L-PS1, and N141I-PS2); details: Table 5, marked *
# Excerpt: as §1, §2, §3
# [5] = V642I-APP + 10 pM peptide, means±S.D., V642I-APP alone 52.9 ± 1.1
# [6] = 25 μM Aβ1-43 + 10 pM peptide, Aβ alone 8.9 ± 0.8
Substance,"% dead cells of total cells [2, 5]",% dead cells of total cells ([2]; V642I-APP + 100 pM peptide),% dead cells of total cells ([2]; V642I-APP + 1 nM peptide),% dead cells of total cells ([2]; V642I-APP + 10 nM peptide),"Calcein fluorescence, percentage of neurons without treatment [3, 6]","Calcein fluorescence, percentage of neurons without treatment ([3]; 25 μM Aβ1-43 + 100 pM peptide)","Calcein fluorescence, percentage of neurons without treatment ([3]; 25 μM Aβ1-43 + 1 nM peptide)","Calcein fluorescence, percentage of neurons without treatment ([3]; 25 μM Aβ1-43 + 10 nM peptide)","Calcein fluorescence, percentage of neurons without treatment ([3]; 25 μM Aβ1-43 + 100 nM peptide)","Calcein fluorescence, percentage of neurons without treatment ([3]; 25 μM Aβ1-43 + 1 μM peptide)","Calcein fluorescence, percentage of neurons without treatment ([3]; 25 μM Aβ1-43 + 10 μM peptide)",also measured
EFLIVIKSMAPRGFSALLLLTSEIDLPVKRRA [EF-HNA],–,–,–,–,–,–,–,–,–,–,–,Full protection [1]: NE** (the corresponding peptide had no cytoprotective effect at 10 μM); IC50 [1]: > 10 µM
"MAPRGFSCLLLLT(p-S)EIDLPVKRRA (MAPRGFSCLLLLT[pS]EIDLPVKRRA) [P-S14 HN, p-S is phosphorylated L-Ser]",56.5 ± 4.1%,56.3 ± 2.7%,54.3 ± 1.2%,53.4 ± 2.0%,8.6 ± 0.3%,8.6 ± 0.4%,8.9 ± 0.1%,8.6 ± 0.3%,8.6 ± 0.1%,85.8 ± 4.1 %,104.1 ± 1.7 %,% dead cells of total cells ([2]; V642I-APP + 100 nM peptide): 41.8 ± 1.8 %; Full protection (minimal concentration that exerted full cytoprotection) [1]: ˜10 μM
MAPRGFSCLLLLTREIDLPVKRRA [(S14R)HN],–,–,–,–,–,–,–,–,–,–,–,cytotoxicity by V642I-APP in the presence of peptide (% dead cells of total cells) [2]: 52.6±1.0%
MAPRGF(p-S)CLLLLTSEIDLPVKRRA (MAPRGF[pS]CLLLLTSEIDLPVKRRA) [P-S7 HN],53.7 ± 0.8%,53.1 ± 1.7%,54.8 ± 1.6%,54.1 ± 1.4%,9.0 ± 0.9%,8.7 ± 0.8%,8.8 ± 0.9%,8.8 ± 0.6%,10.5 ± 0.9%,84.2 ± 6.8 %,103.3 ± 2.8 %,% dead cells of total cells ([2]; V642I-APP + 10 μM peptide): 11.6 ± 1.1 %; Full protection (minimal concentration that exerted full cytoprotection) [4]: ˜10 μM
MAPRGF(p-S)CLLLLT(p-S)EIDLPVKRRA (MAPRGF[pS]CLLLLT[pS]EIDLPVKRRA) [P-S7/14 HN],54.8 ± 0.5%,54.1 ± 1.5%,52.9 ± 1.6%,53.8 ± 3.1%,9.3 ± 0.4%,8.8 ± 0.3%,8.8 ± 0.2%,8.7 ± 0.3%,8.6 ± 0.2%,84.0 ± 5.8 %,103.3 ± 0.8 %,% dead cells of total cells ([2]; V642I-APP + 100 nM peptide): 38.2 ± 1.9 %; % dead cells of total cells ([2]; V642I-APP + 1 μM peptide): 22.7 ± 5.2 %; % dead cells of total cells ([2]; V642I-APP + 10 μM peptide): 11.8 ± 1.2 %; Full protection (minimal concentration that exerted full cytoprotection) [1]: ˜10 μM
MAPRGFSCLLLLTWEIDLPVKRRA [(S14W)HN],–,–,–,–,–,–,–,–,–,–,–,cytotoxicity by V642I-APP in the presence of peptide (% dead cells of total cells) [2]: 54.5±4.2%
MAPRGF(D-Ser)CLLLLTSEIDLPVKRRA [D-Ser7 HN],–,–,–,–,–,–,–,–,–,–,–,Full protection (minimal concentration that exerted full cytoprotection) [4]: ˜10 μM
